Key:
[1] = Plasma stability, dog plasma; assay type: in vitro ADME; conditions: 1 μM, 37° C., 4 hours
Protocol: For metabolic stability, plasma from dog, monkey, swine and human were used. For stability, prodrugs (1 μM) were spiked in respective solutions and incubated in an orbital shaker at 37° C. 50 μL aliquots of the mixture in duplicate were removed, and the reaction quenched by addition of four times the volume of ice cold acetonitrile spiked with the internal standard (Dexamethasone 100 ng/mL). The samples were vortexed for 30 s and centrifuged at 15000 g for 5 min. 100 μL of the supernatant was diluted with 100 μL of water and transferred to the 0.6 mL plastic tubes on 96-well plate. Prodrug disappearance was monitored over time using a liquid chromatography and tandem mass spectrometry (LC-MS/MS).
For LC-MS/MS, prodrugs were analyzed on a ExionLC AD HPLC system coupled to REF Triple Quad 5500+ mass spectrometer with an ESI interface on an Phenomenex Kinetex 5 m C18 100A (2.1*50) mm UPLC column. The autosampler was temperature controlled and was operated at 4° C. The mobile phase used for the chromatographic separation was composed of acetonitrile/water containing 0.10% formic acid and will run at a flow rate of 0.6 mL/min for 3.5 min using gradient elution. The column effluent was monitored using […], equipped with an electrospray probe set in the positive ionization mode. Samples were introduced into the ionization source through a heated nebulized probe (400° C.). Disappearance of prodrugs will be measured from ratio of peak areas of analyte to IS.
For quantification of compound remaining, disappearance of prodrugs was measured from ratio of peak areas of analyte to IS.

[2] = Body weight of C57BL/6 mice bearing MC38 tumors (Example 9); assay type: in vivo, Mus musculus; conditions: C57BL/6, MC38, 2 μmol/kg S.C. QD
Protocol: The treatments were started when the mean tumor size reached 79-118 mm^3 (average tumor size 96 mm^3). Each group contained 8 tumor bearing mice. Group 1 was treated with Vehicle (10% DMSO+90% Saline), S.C., QD. Group 2 was given treatments with reference compound A at 2 μmol/kg, S.C., QD. Group 3 was given treatments with compound 2 at 2 μmol/kg, S.C., QD.
(§1) In vivo efficacy was examined according to absolute tumor growth inhibition (TGI) and the safety was evaluated according to weight change and survival in mice.

[3] = Body weight of CES1c -/- mice bearing MC38 tumors (Example 10); assay type: in vivo; conditions: CES1c -/- mouse, MC38, 2 μmol/kg S.C. QD; for BW Change (%): D6 to D26
Protocol: The treatments were started when the mean tumor size reached 52-132 mm^3 (average tumor size 95 mm^3). Each group contained 5 tumor bearing mice. Group 1 was treated with Vehicle (10% DMSO+90% Saline), S.C., QD(Subcutaneous injection, quaque die). Group 2 was given treatments with reference compound A at 2 μmol/kg, S.C., QD. Group 3 was given treatments with compound 2 at 2 μmol/kg, S.C., QD.
as §1

MC38 tumor cells = experiment: Anti-tumor efficacy in MC38 model in C57BL/6 mouse (Example 11); assay type: in vivo; conditions: C57BL/6, MC38, 2 μmol/kg S.C. QD
Protocol: Animal species: Mus musculus; Strain: C57BL/6; Age: 6-8 weeks; Sex: female. The MC38 tumor cells were maintained in vitro in DMEM medium supplemented with 10% FBS at 37° C., 5% CO2. The cells growing in an exponential growth phase were harvested and counted for tumor inoculation. The culture MC38 were harvested, re-suspended in PBS containing 50% Matrigel at a density of 1×10^7 cells/mL. Each mouse was inoculated subcutaneously in the right flank region with 1×10^6 cells in 0.1 mL of PBS containing 50% Matrigel for tumor development.
The treatments were started when the mean tumor size reached 82-129 mm^3 (average tumor size 102 mm^3). Each group contained 6 tumor bearing mice. Group 1 was treated with Vehicle (10% DMSO+90% Saline), S.C., QD.
as §1
Statistical analysis of difference in tumor volume among the groups was performed using one-way ANOVA followed by individual comparisons using Games-Howell post-hoc test (equal variance not assumed). All data was analyzed using SPSS 22.0 software.

[4] = Body weight of C57BL/6 mice bearing MC38 tumors (Example 11); assay type: in vivo, Mus musculus; conditions: C57BL/6, MC38, 2 μmol/kg S.C. QD
Protocol: The treatments were started when the mean tumor size reached 82-129 mm^3 (average tumor size 102 mm^3). Each group contained 6 tumor bearing mice. Group 1 was treated with Vehicle (10% DMSO+90% Saline), S.C., QD. Group 2 was given treatments with compound 2 at 2 μmol/kg, S.C., QD. Group 3 was given treatments with compound 81 at 2 μmol/kg, S.C., QD. Group 4 was given treatments with compound 443 at 2 μmol/kg, S.C., QD. Group 5 was given treatments with compound 459 at 2 μmol/kg, S.C., QD. Group 6 was given treatments with compound 3 at 2 μmol/kg, S.C., QD.
as §1

[5] = Solubility in water, remark in the synthesis example; assay type: physicochemical; conditions: remark on the isolated product

SMILES | plasma stability (compound remaining) [1] | BW(g) (Mean ± SEM) Beginning (D6) [2] | BW(g) (Mean ± SEM) End (D21) [2] | tolerability / body weight loss [3] | BW(g) (Mean ± SEM) Beginning (D6) [3] | BW Change (%) [3] | BW(g) (Mean ± SEM) End (D26) [3] | T/C (%) (MC38 tumor cells; Example 11) | TGI (%) (MC38 tumor cells; Example 11) | TV (mm^3) (Mean ± SEM) D6 (MC38 tumor cells; Example 11, D6) | TV (mm^3) (Mean ± SEM) D10 (MC38 tumor cells; Example 11, D10) | TV (mm^3) (Mean ± SEM) D13 (MC38 tumor cells; Example 11, D13) | TV (mm^3) (Mean ± SEM) D17 (MC38 tumor cells; Example 11, D17) | TV (mm^3) (Mean ± SEM) D20 (MC38 tumor cells; Example 11, D20) | TV (mm^3) at D21 (Mean ± SEM) (MC38 tumor cells; Table 13, D21) | BW(g) (Mean ± SEM) Beginning (D6) ([4]; D6) | BW Change (%) ([4]; D6 to D20) | BW(g) (Mean ± SEM) End (D20) ([4]; D20) | solubility in water [5] | BW Change (%) ([2]; D6 to D21)
CO[C@@H](C)C(=O)N[C@@H](CCC(=O)C=[N+]=[N-])C(=O)OC(C)C [Compound 2, isopropyl (S)-6-diazo-2-((S)-2-methoxypropanamido)-5-oxohexanoate] | substantially intact | 21.7 ± 0.2 g | 22.4 ± 0.2 g | well-tolerated | 19.1 ± 0.3 g | +2.4% | 19.5 ± 0.3 g | 17.5% | 82.5% | 102 ± 7 mm^3 | 167 ± 17 mm^3 | 257 ± 51 mm^3 | 306 ± 43 mm^3 | 407 ± 33 mm^3 | 407 ± 33 mm^3 | 19.8 ± 0.2 g | +6.4% | 21.1 ± 0.3 g | easily dissolved in water | 
CC(=O)N[C@@H](Cc1c[nH]c2ccccc12)C(=O)N[C@@H](CCC(=O)C=[N+]=[N-])C(=O)OC(C)C [Reference compound A, reference compound] | substantially intact | 21.9 ± 0.3 g | 22.5 ± 0.4 g | some body weight loss | 19.2 ± 0.2 g | −8.3% | 17.6 ± 0.9 g |  |  |  |  |  |  |  |  |  |  |  |  | +2.8%

— US12577201B2, “Glutamine analogs” (Jacobio Pharmaceuticals Co., Ltd., priority 2020, dated 2026)
